Assay results published in patent US6433011B1, “Method for inhibiting formation of aberrant crypt foci in the colon of a mammal” (American Health Foundation, priority 2000, dated 2002).
Entries after “also recorded” stand apart in the source; their conditions may differ. Marks after values point to notes of the source that are not given here.

Legend:
colon tumor incidence = details: AOM treated rats, cited from earlier work
ACF formation = details: given in the diet, short-term study (ref 10); cited from earlier work
[1] = system: aberrant crypt foci (ACF) induced by azoxymethane (AOM) in the colon; test: AOM-induced colonic aberrant crypt foci (ACF) bioassay; format: in vivo, Male F344 rats
Excerpt: The inventors designed a bioassay to examine whether SFN and PEITC can inhibit the formation of aberrant crypt foci (ACF) induced by azoxymethane (AOM) in Fischer rats. ACF has been recognized as an early preneoplastic lesion of colon cancer (7-9) and it is generally observed that agents that inhibit colonic ACF formation would show chemopreventive activity against colon cancer (10). […] The structures of SFN and PEITC and their NAC conjugates are shown below. Two treatment regimens in which SFN and PEITC or their NAC conjugates were administered either after (post-initiation) or before (initiation) AOM treatment were used in the bioassay in order better to define the possible mechanism of action. [drawing 1] Male F344 rats were from Charles River (Kingston, N.Y.). They were fed AIN-76A diet (5% corn oil) and tap water ad libitum. […] PEITC and SFN were purchased from Aldrich Chemical Company (Milwaukee, Wis.) and LTK Labs, Inc. (St. […] The corresponding NAC conjugates were prepared by a published method (13, 26). The purity of the conjugates was greater than 97% as determined by high-performance liquid chromatography. AOM obtained from Ash-Stevens (Detroit, Mich.) was dissolved in saline and administered subcutaneously once a week for two weeks. SFN and PEITC in corn oil and the NAC conjugates in saline (10% DMSO) were given by gavage. Groups 2 to 5 were given 5 μmol SFN or PEITC or 20 μmol of the NAC conjugates, three doses each week for eight weeks, beginning two days after the last dose of AOM. Groups 6 to 9 were treated with three doses of ITC compounds (20 μmol ITC or 50 μmol ITC-NAC) once daily and the last dose was given 2 hr before AOM dosing. This dosing regimen was repeated during the second week of AOM dosing. Groups 10 to 13 were treated with ITCs (5 μmol/dose) or the conjugates (20 μmol/dose) only, three times weekly for eight weeks. Group 14 served as the control group. The bioassay was terminated at week 10 after the second AOM treatment. The colon was processed for microscopic examination and the ACF were recorded using a standard procedure described previously (14). […] For statistical analysis, means were compared among the groups using one-way analysis of variance (ANOVA) followed by Fisher's protected t-test.

[2] = Toxicity observations (body weight, gastrointestinal symptoms) in the ACF bioassay
colon tumorigenesis = details: rats; at the dose level studied (refs 29, 30); cited from earlier work
esophagus tumorigenesis = details: rats; at the dose level studied (refs 29, 30); cited from earlier work
lung tumorigenesis = details: previously reported; cited from earlier work
[3] = target: N,N-dimethylnitrosamine (NDMA) demethylase (CYP2E1) (Rattus norvegicus, UniProt P05182); details: rat liver microsomes; previously shown (ref 26); cited from earlier work
[4] = dog, in vivo; cited from earlier work
[5] = ITC compound only, no AOM: 5 μmol/dose ITC or 20 μmol/dose conjugate, three times weekly for eight weeks
[6] = initiation (pretreatment): 20 μmol ITC or 50 μmol ITC-NAC before AOM, negative = enhancement
[7] = initiation (pretreatment): 20 μmol ITC or 50 μmol ITC-NAC by gavage before AOM, AOM alone (Group 1) 52
[8] = initiation (pretreatment): 20 μmol ITC or 50 μmol ITC-NAC by gavage before AOM, AOM alone (Group 1) 153
[9] = post-initiation: 5 μmol SFN or PEITC or 20 μmol NAC conjugate by gavage, three doses weekly for eight weeks after AOM, AOM alone (Group 1) 52
[10] = post-initiation: 5 μmol SFN or PEITC or 20 μmol NAC conjugate by gavage, three doses weekly for eight weeks after AOM, AOM alone (Group 1) 153
[11] = post-initiation: 5 μmol SFN or PEITC or 20 μmol NAC conjugate, three doses weekly for eight weeks after AOM
[12] = initiation: ITC compound by gavage before AOM, 20 μmol ITC or 50 μmol ITC-NAC, three doses once daily, last 2 hr before AOM, repeated in second week
[13] = post-initiation: ITC compound by gavage after AOM, 5 μmol SFN or PEITC or 20 μmol NAC conjugate, three doses each week for eight weeks

N,N-dimethylnitrosamine (NDMA) demethylase (CYP2E1), sequence (P05182 whole entry): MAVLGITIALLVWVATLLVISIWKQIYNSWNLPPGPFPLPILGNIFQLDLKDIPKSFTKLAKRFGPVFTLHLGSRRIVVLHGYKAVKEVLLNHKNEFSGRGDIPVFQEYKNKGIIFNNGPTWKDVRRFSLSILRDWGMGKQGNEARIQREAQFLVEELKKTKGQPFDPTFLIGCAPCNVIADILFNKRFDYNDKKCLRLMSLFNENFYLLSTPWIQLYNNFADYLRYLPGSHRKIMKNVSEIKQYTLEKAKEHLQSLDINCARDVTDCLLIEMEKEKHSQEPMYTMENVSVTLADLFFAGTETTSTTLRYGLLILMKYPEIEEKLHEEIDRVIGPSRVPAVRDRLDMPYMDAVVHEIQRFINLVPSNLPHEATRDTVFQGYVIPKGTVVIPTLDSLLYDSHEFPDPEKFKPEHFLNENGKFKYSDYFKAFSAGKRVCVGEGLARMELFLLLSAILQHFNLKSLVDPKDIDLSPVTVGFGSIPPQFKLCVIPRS

| Molecule | Activity towards ACF formation (ACF formation) | Number of aberrant crypt foci >4 Crypts [1, 5] | Number of aberrant crypt foci Total [1, 5] | Percent of inhibition compared to Group 1, Total aberrant crypt foci [1, 6] | Percent of inhibition compared to Group 1, aberrant crypt foci >4 Crypts [1, 6] | Number of aberrant crypt foci >4 Crypts [1, 7] | Number of aberrant crypt foci Total [1, 8] | Number of aberrant crypt foci >4 Crypts [1, 9] | Number of aberrant crypt foci Total [1, 10] | Percent of inhibition compared to Group 1, Total aberrant crypt foci [1, 11] | Percent of inhibition compared to Group 1, aberrant crypt foci >4 Crypts [1, 11] | Average Body Weight at Termination [2, 5] | Average Body Weight at Termination [2, 12] | Average Body Weight at Termination [2, 13] | Inhibition of NDMA demethylase (CYP2E1) [3] | also measured |
| --- | --- | --- | --- | --- | --- | --- | --- | --- | --- | --- | --- | --- | --- | --- | --- | --- |
| S=C=NCc1ccccc1 [BITC, benzyl isothiocyanate] | inactive; also recorded: slightly induce ACF formation |  |  |  |  |  |  |  |  |  |  |  |  |  |  | Effect on colon tumor incidence, initiation phase (colon tumor incidence; initiation phase (ref 34)): inhibit; Effect on colon tumor incidence, post-initiation phase (colon tumor incidence; post-initiation phase (ref 34)): not during the post-initiation phase |
| N-acetylcysteine conjugate of SFA [SFN-NAC] |  | 0 | 0 | (22)^c % | 15% | 44 | 120 | 31 | 116 | (24)^c % | (40)^c % | 312 | 304 | 297 |  |  |
| C[S+]([O-])CCCCN=C=S (centres unmarked) [SFN, sulforaphane] |  | 0 | 0 | (29)^c % | (33)^f % | 35 | 109 | 30 | 103 | (33)^d % | (42)^b,c % | 309 | 310 | 301 |  |  |
| S=C=NCCCCCCc1ccccc1 [phenylhexyl ITC] |  |  |  |  |  |  |  |  |  |  |  |  |  |  |  | Effect on colon tumorigenesis (colon tumorigenesis): enhanced; Effect on esophagus tumorigenesis (esophagus tumorigenesis): enhanced; Effect on lung tumorigenesis (lung tumorigenesis): potent inhibitor |
| CC(=O)N[C@@H](CSC(=S)NCCc1ccccc1)C(=O)O [PEITC-NAC, N-acetylcysteine conjugate of PEITC] |  | 0 | 0 | (−29)^e % | (−42)^c % | 74 | 198 | 38 | 113 | (26)^e % | (27)^f % | 301 | 303 | 313 | inhibitors |  |
| S=C=NCCc1ccccc1 [PEITC, phenethyl isothiocyanate] | inactive |  |  | (25)^c % | (33)^f % | 35 | 115 | 27 | 100 | (35)^d % | (48)^c % |  |  |  | inhibitors | Dose at which dose related weight loss became statistically significant [4]: 8 mg/kg; Dose at which signs of irritation of the mucosa of the urinary bladder were reported [4]: ≥ 4 mg/kg/day; Dose levels at which diarrhea and vomiting, with gastrointestinal irritation, occurred sporadically [4]: ≥ 2 mg/kg |
